Patent US20260158009A1 (GENZYME CORPORATION, priority 2023, published 2026)

Columns and labels:
[1] = system: U937 cells; assay: Cellular assay in U937 cells: activity of RIPK1 inhibitors on TNFα/zVAD.fmk-induced cell death (necroptosis), CellTiter 96 AQueous (MTS) readout; format: cell-based; conditions: Homo sapiens, U-937
Procedure, shortened: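 Necroptosis was measured by viable-cell MTS reduction (4 h, absorbance 490 nm) after overnight (18–24 h) 37° C culture. Cell suspensions of U937 cells carried TNFα (100 ng/ml) plus zVAD.fmk (50 μM) before compound was added. A 10-point curve (10 μM–0.26 nM or 1 μM–0.07 nM) was run in duplicate, normalised to the control lacking TNFα/zVAD.fmk.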

[2] = target: T1, hRIPK1 (aa 1-375) fusion protein (Homo sapiens, UniProt Q13546); assay: ADP-Glo kinase assay: catalytic activity of RIPK1 (autophosphorylation, conversion of ATP to ADP); format: biochemical
T1 construct: hRIPK1 (aa 1-375) fusion protein
T1 sequence (Q13546 1-375): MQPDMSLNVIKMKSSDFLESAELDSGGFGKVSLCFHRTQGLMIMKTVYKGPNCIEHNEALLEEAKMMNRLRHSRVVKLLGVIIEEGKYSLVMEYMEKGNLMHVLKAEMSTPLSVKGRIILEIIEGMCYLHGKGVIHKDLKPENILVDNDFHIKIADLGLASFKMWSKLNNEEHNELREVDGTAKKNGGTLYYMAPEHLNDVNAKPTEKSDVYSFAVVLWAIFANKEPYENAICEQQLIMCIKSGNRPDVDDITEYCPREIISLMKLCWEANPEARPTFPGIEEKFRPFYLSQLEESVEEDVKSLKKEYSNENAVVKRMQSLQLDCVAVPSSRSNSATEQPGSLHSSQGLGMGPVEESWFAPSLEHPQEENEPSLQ
Procedure, shortened: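 hRIPK1 (aa 1-375) fusion protein (3.6 μg/ml final) was preincubated 30 min at rt with compound (33300-1.69 nM, 1% DMSO), then 50 μM ATP was added for 240 min at rt. ADP from autophosphorylation was measured by ADP-Glo luminescence and curves fitted by nonlinear regression.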

Row | IC50 [2] [nM] | Structure (SMILES) | IC50 [1] [nM]
1 | 19 | N#Cc1cc(F)cc([C@@H]2CCON2C(=O)[C@H]2CC[C@H](Cc3ccc(C4(O)COC4)cc3)CC2)c1 [compound 169, trans-3-fluoro-5-[(3S)-2-[4-[[4-(3-hydroxyoxetan-3-yl)phenyl]methyl]cyclohexanecarbonyl]isoxazolidin-3-yl]benzonitrile] | 44
2 | 20 | Cn1cc(C[C@H]2CC[C@H](C(=O)N3OCC[C@H]3c3cc(F)cc(F)c3)CC2)cn1 [compound 236, trans-[(3S)-3-(3,5-difluorophenyl)isoxazolidin-2-yl]-[4-[(1-methylpyrazol-4-yl)methyl]cyclohexyl]methanone] | 4
3 | 15 | N#Cc1cc(F)cc([C@@H]2CCON2C(=O)[C@H]2CC[C@H](Cc3cc(F)cc(CO)c3)CC2)c1 [Compound 256, trans-3-fluoro-5-[(3S)-2-[4-[[3-fluoro-5-(hydroxymethyl)phenyl]methyl]cyclohexanecarbonyl]isoxazolidin-3-yl]benzonitrile] | 1
4 | 7 | N#Cc1cc(F)cc([C@@H]2CCON2C(=O)[C@H]2CC[C@H](Cn3ccc4ncc(OCC5CC5)cc43)CC2)c1 [compound 152, trans-3-[(3S)-2-[4-[[6-(cyclopropylmethoxy)pyrrolo[3,2-b]pyridin-1-yl]methyl]cyclohexanecarbonyl]isoxazolidin-3-yl]-5-fluoro-benzonitrile] | 3
5 | 41 | Cc1cc([C@@H]2CCON2C(=O)[C@H]2CC[C@H](Cn3cnc4cc(C#N)c(F)cc43)CC2)co1 [compound 40, trans-6-fluoro-1-((4-((S)-3-(5-methylfuran-3-yl)isoxazolidine-2-carbonyl)cyclohexyl)methyl)-1H-benzo[d]imidazole-5-carbonitrile] | 59
6 | 27 | O=C([C@H]1CC[C@H](Cc2cncc(F)c2)CC1)N1OCC[C@H]1c1cnccn1 [compound 147, trans-[4-[(5-fluoro-3-pyridyl)methyl]cyclohexyl]-[(3S)-3-pyrazin-2-ylisoxazolidin-2-yl]methanone] | 40
7 | 46 | N#Cc1cc(F)cc([C@@H]2CCON2C(=O)[C@H]2CC[C@H](Cn3ccc4cnccc43)CC2)c1 [compound 15, trans-3-((S)-2-(4-((1H-pyrrolo[3,2-c]pyridin-1-yl)methyl)cyclohexane-1-carbonyl)isoxazolidin-3-yl)-5-fluorobenzonitrile] | 11
8 | 16 | O=C([C@H]1CC[C@H](Cc2cc(F)cc(CCO)c2)CC1)N1OCC[C@H]1c1cc(F)cc(F)c1 [compound 283, trans-[(3S)-3-(3,5-difluorophenyl)isoxazolidin-2-yl]-[4-[[3-fluoro-5-(2-hydroxyethyl)phenyl]methyl]cyclohexyl]methanone] | 13
9 | 23 | O=C1NCc2ccc(C[C@H]3CC[C@H](C(=O)N4OCC[C@H]4c4ccc(F)cc4)CC3)cc21 [compound 154, trans-6-[[4-[(3S)-3-(4-fluorophenyl)isoxazolidine-2-carbonyl]cyclohexyl]methyl]isoindolin-1-one] | 33
10 | 50 | Cc1cnc([C@@H]2CCON2C(=O)[C@H]2CC[C@H](Cc3cc(F)c4nc(C)nn4c3)CC2)cn1 [compound 379, trans-[4-[(8-fluoro-2-methyl-[1,2,4]triazolo[1,5-a]pyridin-6-yl)methyl]cyclohexyl]-[(3S)-3-(5-methylpyrazin-2-yl)-1,2-oxazolidin-2-yl]methanone] | 191
11 | 21 | Cc1nc([C@@H]2CCON2C(=O)[C@H]2CC[C@H](Cn3ncc4ccc(C#N)cc43)CC2)cs1 [compound 204, trans-1-[[4-[(3S)-3-(2-methylthiazol-4-yl)isoxazolidine-2-carbonyl]cyclohexyl]methyl]indazole-6-carbonitrile] | 2
12 | 19 | Cc1cn2cc(C[C@H]3CC[C@H](C(=O)N4OCC[C@H]4c4cc(F)cc(F)c4)CC3)cc(F)c2n1 [compound 281, trans-[(3S)-3-(3,5-difluorophenyl)isoxazolidin-2-yl]-[4-[(8-fluoro-2-methyl-imidazo[1,2-a]pyridin-6-yl)methyl]cyclohexyl]methanone] | 5
13 | 14 | Cc1cc(C[C@H]2CC[C@H](C(=O)N3OCC[C@H]3c3cnccn3)CC2)c(Cl)cn1 [compound 396, trans-[4-[(5-chloro-2-methylpyridin-4-yl)methyl]cyclohexyl]-[(3S)-3-pyrazin-2-yl-1,2-oxazolidin-2-yl]methanone] | 4
14 | 63 | Cc1cn2cc(C[C@H]3CC[C@H](C(=O)N4OCC[C@H]4c4cnccn4)CC3)cc(F)c2n1 [compound 350, trans-[4-(8-Fluoro-2-methyl-imidazo[1,2-a]pyridin-6-ylmethyl)-cyclohexyl]-((S)-3-pyrazin-2-yl-isoxazolidin-2-yl)-methanone] | 34
15 | 46 | N#Cc1cncc([C@@H]2CCON2C(=O)[C@H]2CC[C@H](Cn3cnc4ccc(F)cc43)CC2)c1 [compound 106, trans-5-((S)-2-(4-((6-fluoro-1H-benzo[d]imidazol-1-yl)methyl)cyclohexane-1-carbonyl)isoxazolidin-3-yl)nicotinonitrile] | 54
16 | 18 | N#Cc1cc(F)cc([C@@H]2CCON2C(=O)[C@H]2CC[C@H](Cc3cncc(F)c3)CC2)c1 [compound 148, trans-3-fluoro-5-[(3S)-2-[4-[(5-fluoro-3-pyridyl)methyl]cyclohexanecarbonyl]isoxazolidin-3-yl]benzonitrile] | 4
17 | 25 | NC(=O)c1ccc2cnn(C[C@H]3CC[C@H](C(=O)N4OCC[C@H]4c4cnccn4)CC3)c2c1 [Compound 229, trans-1-[[4-[(3S)-3-pyrazin-2-ylisoxazolidine-2-carbonyl]cyclohexyl]methyl]indazole-6-carboxamide] | 78
18 | 15 | Cc1nccn1-c1cc(F)cc(C[C@H]2CC[C@H](C(=O)N3OCC[C@H]3c3cc(F)cc(C#N)c3)CC2)c1 [compound 216, trans-3-fluoro-5-[(3S)-2-[4-[[3-fluoro-5-(2-methylimidazol-1-yl)phenyl]methyl]cyclohexanecarbonyl]isoxazolidin-3-yl]benzonitrile] | 10
19 | 30 | O=C([C@H]1CC[C@H](Cc2ccc(C3(O)COC3)cc2)CC1)N1OCC[C@H]1c1cnccn1 [compound 352, trans-[4-[[4-(3-hydroxyoxetan-3-yl)phenyl]methyl]cyclohexyl]-[(3S)-3-pyrazin-2-yl-1,2-oxazolidin-2-yl]methanone] | 58
20 | 15 | Cc1nc2c(C)cc(C[C@H]3CC[C@H](C(=O)N4OCC[C@H]4c4cncc(F)c4)CC3)cn2n1 [compound 331, trans-[4-[(2,8-dimethyl-[1,2,4]triazolo[1,5-a]pyridin-6-yl)methyl]cyclohexyl]-[(3S)-3-(5-fluoropyridin-3-yl)-1,2-oxazolidin-2-yl]methanone] | 20
21 | 116 | Cc1ncn(C[C@H]2CC[C@H](C(=O)N3OCC[C@H]3c3cncc(F)c3)CC2)c1C#N [compound 4, trans-1-((4-((S)-3-(5-fluoropyridin-3-yl)isoxazolidine-2-carbonyl)cyclohexyl)methyl)-4-methyl-1H-imidazole-5-carbonitrile] | 721
22 | 78 | N#Cc1cc2ncn(C[C@H]3CC[C@H](C(=O)N4OCC[C@H]4c4cnccn4)CC3)c2cc1F [compound 97, trans-6-fluoro-1-((4-((S)-3-(pyrazin-2-yl)isoxazolidine-2-carbonyl)cyclohexyl)methyl)-1H-benzo[d]imidazole-5-carbonitrile] | 214
23 | 16 | Cc1cc(C[C@H]2CC[C@H](C(=O)N3OCC[C@H]3c3cnccn3)CC2)cn2ncnc12 [compound 250, trans-[4-[(8-methyl-[1,2,4]triazolo[1,5-a]pyridin-6-yl)methyl]cyclohexyl]-[(3S)-3-pyrazin-2-yl-1,2-oxazolidin-2-yl]methanone] | 17
24 | 6 | N#Cc1cc(F)cc([C@@H]2CCON2C(=O)[C@H]2CC[C@H](Cn3ncc4ncc(C#N)cc43)CC2)c1 [compound 27, trans-1-((4-((S)-3-(3-cyano-5-fluorophenyl)isoxazolidine-2-carbonyl)cyclohexyl)methyl)-1H-pyrazolo[4,3-b]pyridine-6-carbonitrile] | 2
25 | 26 | COc1cc(C[C@H]2CC[C@H](C(=O)N3OCC[C@H]3c3cnc(C)c(F)c3)CC2)cn2nc(C)nc12 [compound 342, trans-[(3S)-3-(5-fluoro-6-methylpyridin-3-yl)-1,2-oxazolidin-2-yl]-[4-[(8-methoxy-2-methyl-[1,2,4]triazolo[1,5-a]pyridin-6-yl)methyl]cyclohexyl]methanone] | 8
